Data: patent publication US12421249B2, “Inhibitors of APOL1 and methods of using same” (Vertex Pharmaceuticals Incorporated, priority 2020, dated 2025)

Assays:
APOL1 = biological target: T1, APOL1 (Homo sapiens, UniProt O14791); test: Multi-Tox Assay (MultiTox-Fluor Multiplex Cytotoxicity Assay in tet-inducible APOL1 T-REx-HEK293 cells; Table 46 does not say which APOL1 variant G0/G1/G2); assay type: cell-based; conditions: APOL1 variant not given; for IC50: IP50 = IC50 for cell proliferation
T1 sequence (O14791 1-398 S342G/I384M): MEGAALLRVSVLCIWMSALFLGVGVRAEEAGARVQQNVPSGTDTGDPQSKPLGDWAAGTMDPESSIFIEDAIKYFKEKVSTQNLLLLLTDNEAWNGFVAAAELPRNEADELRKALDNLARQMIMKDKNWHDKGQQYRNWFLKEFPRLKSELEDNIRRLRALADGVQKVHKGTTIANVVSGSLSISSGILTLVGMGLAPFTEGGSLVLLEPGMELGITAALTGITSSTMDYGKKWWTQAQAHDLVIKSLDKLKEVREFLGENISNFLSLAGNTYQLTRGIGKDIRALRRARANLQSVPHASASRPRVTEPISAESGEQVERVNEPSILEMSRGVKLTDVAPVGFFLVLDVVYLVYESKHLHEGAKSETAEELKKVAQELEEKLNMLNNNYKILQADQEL

APOL1 G1 = biological target: T2, APOL1 G1 (Homo sapiens, UniProt O14791, I384M/S342G); test: Trypanosoma brucei brucei Lysis Assay Using APOL1 Recombinant Protein (AlamarBlue viability readout); assay type: cell-based; conditions: Trypanosome Assay; for IC50: IP50 = IC50 for cell proliferation, read-out: Trypanosome Assay IP50; for Emax: read-out: Trypanosome Assay Max Activity (%)
T2 sequence (O14791 28-398 S342G/I384M): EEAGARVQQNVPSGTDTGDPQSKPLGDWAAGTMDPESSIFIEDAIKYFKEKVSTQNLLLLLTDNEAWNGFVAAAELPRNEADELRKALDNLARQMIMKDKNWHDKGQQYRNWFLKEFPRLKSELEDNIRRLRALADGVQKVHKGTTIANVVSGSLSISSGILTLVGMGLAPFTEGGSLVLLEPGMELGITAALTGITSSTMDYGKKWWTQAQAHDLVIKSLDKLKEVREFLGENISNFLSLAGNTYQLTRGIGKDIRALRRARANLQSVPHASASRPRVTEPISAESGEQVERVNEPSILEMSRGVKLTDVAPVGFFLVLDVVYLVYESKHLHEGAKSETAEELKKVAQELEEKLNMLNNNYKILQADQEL
In short: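 Percent viability comes from AlamarBlue (resazurin→resorufin) fluorescence interpolated on a standard curve of known parasite numbers, with no-APOL1 wells as 100%. Parasites (Lister 427 bloodstream form, 120,000/well, serum-free assay medium) meet 0.05 μg/mL APOL1 (~EC90). Compounds span a 10-point series, 0.1% DMSO final.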

SMILES	Multi-Tox Assay Max Activity (%) (APOL1)	IC50 (APOL1)	IC50 (APOL1 G1)	Emax (APOL1 G1)	IC90 (APOL1)
Cc1cc(C2CC3(CC(C)N2)OCCc2cc(Cl)sc23)ncn1 (stereo not drawn) [Compound 43]	100.0%	< 50 nM	< 50 nM	103%	–
CC1CC2(CC(c3cncnc3)N1)OCCc1cc(Cl)sc12 (stereo not drawn) [Compound 45]	100.0%	< 50 nM	< 50 nM	103%	–
CC1CC2(CC(c3cnn(CCS(C)(=O)=O)c3)N1)OCCc1cc(Cl)sc12 (stereo not drawn) [Compound 46]	99.0%	< 50 nM	< 50 nM	108%	–
CC1CC2(CC(c3cn(CC4CC4)nn3)N1)OCCc1cc(Cl)sc12 (stereo not drawn) [Compound 122]	–	< 50 nM	50 to 500 nM	106%	–
C[C@H]1C[C@@]2(C[C@@H](c3cn(C)nn3)N1)OC[C@@H](O)c1cc(Cl)sc12 [Compound 174, (2′S,4S,6′S,7S)-2-chloro-2′-methyl-6′-(1-methyltriazol-4-yl)spiro[4,5-dihydrothieno[2,3-c]pyran-7,4′-piperidine]-4-ol]	–	< 50 nM	< 50 nM	104%	–
C[C@H]1C[C@@]2(C[C@@H](c3cn(C)nn3)N1)OC[C@H](O)c1cc(C(F)(F)F)sc12 [Compound 180]	–	< 50 nM	< 50 nM	102%	–
C[C@H]1C[C@@]2(C[C@@H](c3cn(C)nn3)N1)OC[C@@H](O)c1cc(C(F)(F)F)sc12 [Compound 181, (2S,4S,4′S,6S)-2-methyl-6-(1-methyl-1H-1,2,3-triazol-4-yl)-2′-(trifluoromethyl)-4′,5′-dihydrospiro[piperidine-4,7′-thieno[2,3-c]pyran]-4′-ol]	–	< 50 nM	< 50 nM	102%	–
C[C@H]1C[C@@]2(C[C@@H](c3cn(C)nn3)N1)OC[C@@H](O)c1sc(Cl)cc12 [Compound 182]	–	< 50 nM	< 50 nM	113%	–
C[C@H]1C[C@@]2(C[C@@H](c3cn(C)nn3)N1)OCC(F)(F)c1cc(Cl)sc12 [Compound 183, (2′S,6′S,7S)-2-chloro-4,4-difluoro-2′-methyl-6′-(1-methyltriazol-4-yl)spiro[5H-thieno[2,3-c]pyran-7,4′-piperidine]]	–	< 50 nM	50 to 500 nM	106%	–
CCC1CC2(CC(c3cn(C)nn3)N1)OCCc1cc(Cl)sc12 (stereo not drawn) [Compound 186, 2-chloro-2′-ethyl-6′-(1-methyltriazol-4-yl)spiro[4,5-dihydrothieno[2,3-c]pyran-7,4′-piperidine]]	99.3%	< 50 nM	50 to 500 nM	104%	50 to 500 nM
CCC1CC2(CC(c3cn(C)nn3)N1)OCCc1cc(C(F)(F)F)sc12 (stereo not drawn) [Compound 187, 2′-ethyl-6′-(1-methyltriazol-4-yl)-2-(trifluoromethyl)spiro[4,5-dihydrothieno[2,3-c]pyran-7,4′-piperidine]]	100.0%	< 50 nM	50 to 500 nM	106%	< 50 nM
CC(C)C1CC2(CC(c3cn(C)nn3)N1)OCCc1cc(Cl)sc12 (stereo not drawn) [Compound 188]	99.0%	50 to 500 nM	50 to 500 nM	108%	50 to 500 nM
Cn1cc(C2CC3(CC(C4CCC4)N2)OCCc2cc(Cl)sc23)nn1 (stereo not drawn) [Compound 189]	–	50 to 500 nM	> 500 nM	87.5%	–
COCC1CC2(CC(c3cn(C)nn3)N1)OCCc1cc(Cl)sc12 (stereo not drawn) [Compound 190]	–	50 to 500 nM	> 500 nM	92.5%	–
CC(C)C1CC2(CC(c3cn(C)nn3)N1)OCCc1cc(C(F)(F)F)sc12 (stereo not drawn) [Compound 191]	–	50 to 500 nM	50 to 500 nM	108%	–
Cn1cc(C2CC3(CC(C4CCC4)N2)OCCc2cc(C(F)(F)F)sc23)nn1 (stereo not drawn) [Compound 192]	–	50 to 500 nM	50 to 500 nM	100%	–
COCC1CC2(CC(c3cn(C)nn3)N1)OCCc1cc(C(F)(F)F)sc12 (stereo not drawn) [Compound 193]	–	50 to 500 nM	50 to 500 nM	100%	–
C[C@H]1CC2(C[C@H](C)N1)OCCc1sc(C(F)(F)F)cc12 (stereo partly drawn) [Compound 195]	–	> 500 nM	> 500 nM	50.7%	–
COC(=O)[C@@H]1C[C@]2(C[C@H](C)N1)OCCc1cc(Cl)sc12 [Compound 209, methyl (2′S,6′S,7S)-2-chloro-6′-methyl-spiro[4,5-dihydrothieno[2,3-c]pyran-7,4′-piperidine]-2′-carboxylate]	–	> 500 nM	50 to 500 nM	100%	–
